# From article PMC11409674, “Raffinocyclicin is a novel plasmid-encoded circular bacteriocin produced by Lactococcus raffinolactis with broad-spectrum activity against many gram-positive food pathogens” (Applied and environmental microbiology, 2024)
# Entries after “also recorded” stand apart in the source; their conditions may differ.
# Tests used:
# [1] = tested on: proteases; set-up: method as in 4 sources, ref 33 = [33]; PMID 21948835; doi:10.1128/AEM.06348-11; 33 Masuda Y Ono H Kitagawa H Ito H Mu F Sawa N Zendo T Sonomoto K Identification and characterization of leucocyclicin Q, a novel cyclic bacteriocin produced by Leuconostoc mesenteroides TK41401 Appl ||| ref 27 = [27]; PMID 21057028; doi:10.1128/AEM.01173-10; 27 Borrero J Brede DA Skaugen M Diep DB Herranz C Nes IF Cintas LM Hernández PE Characterization of garvicin ML, a novel circular bacteriocin produced by Lactococcus garvieae DCC43, isolated from mall ||| ref 30 = [30]; PMID 29177092; doi:10.1099/mgen.0.000134; 30 van Heel AJ Montalban-Lopez M Oliveau Q Kuipers OP Genome-guided identification of novel head-to-tail cyclized antimicrobial peptides, exemplified by the discovery of pumilarin Microb Genom 2017 3 ||| ref 29 = [29]; PMID 18552180; doi:10.1128/AEM.00817-08; 29 Martin-Visscher LA van Belkum MJ Garneau-Tsodikova S Whittal RM Zheng J McMullen LM Vederas JC Isolation and characterization of carnocyclin A, a novel circular bacteriocin produced by Carnobacteri; conditions: cited from earlier work
# [2] = tested on: Staphylococcus epidermidis DSM 3095; experiment: spot-on-lawn assay; type: cell-based; conditions: producer spot on M17, chloroform-inactivated, overlay ~7.0 log CFU/mL indicator; 37 °C, Aerobic, BHI; true halo, triplicate
# [3] = tested on: Staphylococcus capitis APC 2923; experiment: spot-on-lawn assay; type: cell-based; set-up: key: –: no activity; +: 0.5–5 mm inhibition zone; ++: >5–≤10 mm inhibition zone; +++: >10 mm inhibition zone; conditions: producer spot on M17, chloroform-inactivated, overlay ~7.0 log CFU/mL indicator; 37 °C, Aerobic, BHI; true halo, triplicate
# [4] = tested on: Staphylococcus pseudointermedius DK 279; experiment: spot-on-lawn assay; type: cell-based; set-up: key: –: no activity; +: 0.5–5 mm inhibition zone; ++: >5–≤10 mm inhibition zone; +++: >10 mm inhibition zone; conditions: producer spot on M17, chloroform-inactivated, overlay ~7.0 log CFU/mL indicator; 37 °C, Aerobic, BHI; true halo, triplicate
# [5] = tested on: Staphylococcus aureus DPC 5645; experiment: spot-on-lawn assay; type: cell-based; set-up: key: –: no activity; +: 0.5–5 mm inhibition zone; ++: >5–≤10 mm inhibition zone; +++: >10 mm inhibition zone; conditions: producer spot on M17, chloroform-inactivated, overlay ~7.0 log CFU/mL indicator; 37 °C, Aerobic, BHI; true halo, triplicate
# [6] = tested on: S. aureus C5M; experiment: spot-on-lawn assay; type: cell-based, Staphylococcus aureus; set-up: key: –: no activity; +: 0.5–5 mm inhibition zone; ++: >5–≤10 mm inhibition zone; +++: >10 mm inhibition zone; conditions: producer spot on M17, chloroform-inactivated, overlay ~7.0 log CFU/mL indicator; 37 °C, Aerobic, BHI; true halo, triplicate
# [7] = tested on: S. aureus B2M; experiment: spot-on-lawn assay; type: cell-based, Staphylococcus aureus; conditions: producer spot on M17, chloroform-inactivated, overlay ~7.0 log CFU/mL indicator; 37 °C, Aerobic, BHI; true halo, triplicate
# [8] = tested on: Enterococcus faecalis ATCC 29200; experiment: spot-on-lawn assay; type: cell-based; conditions: producer spot on M17, chloroform-inactivated, overlay ~7.0 log CFU/mL indicator; 37 °C, Aerobic, BHI; true halo, triplicate
# [9] = tested on: E. faecalis V583; experiment: spot-on-lawn assay; type: cell-based, Enterococcus faecalis; conditions: producer spot on M17, chloroform-inactivated, overlay ~7.0 log CFU/mL indicator; 37 °C, Aerobic, BHI; true halo, triplicate
# [10] = tested on: Enterococcus faecium NCD 0942; experiment: spot-on-lawn assay; type: cell-based; conditions: producer spot on M17, chloroform-inactivated, overlay ~7.0 log CFU/mL indicator; 37 °C, Aerobic, BHI; true halo, triplicate
# [11] = tested on: E. faecium DPC 5152; experiment: spot-on-lawn assay; type: cell-based, Enterococcus faecium; conditions: producer spot on M17, chloroform-inactivated, overlay ~7.0 log CFU/mL indicator; 37 °C, Aerobic, BHI; true halo, triplicate
# [12] = tested on: E. faecium DPC 3675; experiment: spot-on-lawn assay; type: cell-based, Enterococcus faecium; conditions: producer spot on M17, chloroform-inactivated, overlay ~7.0 log CFU/mL indicator; 37 °C, Aerobic, BHI; true halo, triplicate
# [13] = tested on: E. faecium DSM 26544; experiment: spot-on-lawn assay; type: cell-based, Enterococcus faecium; conditions: producer spot on M17, chloroform-inactivated, overlay ~7.0 log CFU/mL indicator; 37 °C, Aerobic, BHI; true halo, triplicate
# [14] = tested on: VRE APC 1026; experiment: spot-on-lawn assay; type: cell-based, vancomycin-resistant enterococci; conditions: producer spot on M17, chloroform-inactivated, overlay ~7.0 log CFU/mL indicator; 37 °C, Aerobic, BHI; true halo, triplicate
# [15] = tested on: VRE APC 1027; experiment: spot-on-lawn assay; type: cell-based, vancomycin-resistant enterococci; conditions: producer spot on M17, chloroform-inactivated, overlay ~7.0 log CFU/mL indicator; 37 °C, Aerobic, BHI; true halo, triplicate
# [16] = tested on: VRE APC 1028; experiment: spot-on-lawn assay; type: cell-based, vancomycin-resistant enterococci; conditions: producer spot on M17, chloroform-inactivated, overlay ~7.0 log CFU/mL indicator; 37 °C, Aerobic, BHI; true halo, triplicate
# [17] = tested on: VRE APC 1029; experiment: spot-on-lawn assay; type: cell-based, vancomycin-resistant enterococci; conditions: producer spot on M17, chloroform-inactivated, overlay ~7.0 log CFU/mL indicator; 37 °C, Aerobic, BHI; true halo, triplicate
# [18] = tested on: Micrococcus luteus APC 4061; experiment: spot-on-lawn assay; type: cell-based; conditions: producer spot on M17, chloroform-inactivated, overlay ~7.0 log CFU/mL indicator; 37 °C, Aerobic, BHI; true halo, triplicate
# [19] = tested on: Streptococcus agalactiae 35; experiment: spot-on-lawn assay; type: cell-based; conditions: producer spot on M17, chloroform-inactivated, overlay ~7.0 log CFU/mL indicator; 37 °C, Aerobic, TSA; true halo, triplicate
# [20] = tested on: S. agalactiae 119; experiment: spot-on-lawn assay; type: cell-based, Streptococcus agalactiae; conditions: producer spot on M17, chloroform-inactivated, overlay ~7.0 log CFU/mL indicator; 37 °C, Aerobic, TSA; true halo, triplicate
# [21] = tested on: Lactococcus lactis HP; experiment: spot-on-lawn assay; type: cell-based; conditions: producer spot on M17, chloroform-inactivated, overlay ~7.0 log CFU/mL indicator; 30 °C, Aerobic, GM17; true halo, triplicate
# [22] = tested on: L. lactis ATCC 11454; experiment: spot-on-lawn assay; type: cell-based, Lactococcus lactis; conditions: producer spot on M17, chloroform-inactivated, overlay ~7.0 log CFU/mL indicator; 30 °C, Aerobic, GM17; true halo, triplicate
# [23] = tested on: Lactobacillus delbrueckii subsp. bulgaricus LMG 6901; experiment: spot-on-lawn assay; type: cell-based; conditions: producer spot on M17, chloroform-inactivated, overlay ~7.0 log CFU/mL indicator; 37 °C, Anaerobic, MRS; true halo, triplicate
# [24] = tested on: Leuconostoc mesenteroides KH 24; experiment: spot-on-lawn assay; type: cell-based; conditions: producer spot on M17, chloroform-inactivated, overlay ~7.0 log CFU/mL indicator; 30 °C, Aerobic, MRS; true halo, triplicate
# [25] = tested on: Listeria innocua UCC; experiment: spot-on-lawn assay; type: cell-based; conditions: producer spot on M17, chloroform-inactivated, overlay ~7.0 log CFU/mL indicator; 37 °C, Aerobic, BHI; true halo, triplicate
# [26] = tested on: Listeria monocytogenes EDGe; experiment: spot-on-lawn assay; type: cell-based; conditions: producer spot on M17, chloroform-inactivated, overlay ~7.0 log CFU/mL indicator; 37 °C, Aerobic, BHI; true halo, triplicate
# [27] = tested on: Clostridium perfringens EM124; type: cell-based; conditions: producer spot on M17, chloroform-inactivated, overlay ~7.0 log CFU/mL indicator; 37 °C, Anaerobic, RCM; true halo, triplicate
# [28] = tested on: Bacilllus cereus KH 1453; experiment: spot-on-lawn assay; type: cell-based; set-up: key: –: no activity; +: 0.5–5 mm inhibition zone; ++: >5–≤10 mm inhibition zone; +++: >10 mm inhibition zone; conditions: producer spot on M17, chloroform-inactivated, overlay ~7.0 log CFU/mL indicator; 37 °C, Aerobic, BHI; true halo, triplicate
# [29] = tested on: Escherichia sp. UCC; experiment: spot-on-lawn assay; type: cell-based; set-up: key to Activity (inhibition zone): –: no activity; +: 0.5–5 mm inhibition zone; ++: >5–≤10 mm inhibition zone; +++: >10 mm inhibition zone
# Method: The antimicrobial activity of the strain L. raffinolactis APC 3967 was evaluated on M17 medium by the agar-spot test as described by Giambiagi-deMarval et al. ([42]) with minor modifications ([42]). Briefly, 5 µL of an overnight growth suspension of the producer strain was spotted on the surface of the agar plate and incubated overnight at 30°C. Cells were inactivated by chloroform and overlaid with 3 mL soft agar (0.75% wt/vol) containing the target strain (~7.0 log CFU/mL), and these plates were incubated overnight. The growth conditions of every target strain used in this assay are outlined in Table 1. The interpretation of inhibition was performed by measuring the true halo of the inhibitory zone (total halo – spot size = true halo) and was classified into one of four groups: (i) no inhibition (0 mm); (ii) weak inhibition (0.5–5 mm); (iii) moderate inhibition (>5–≤10 mm); and (iv) strong inhibition (>10 mm). These assays were performed in triplicate.
# [30] = tested on: Klebsiella pneumoniae C02.b; experiment: spot-on-lawn assay; type: cell-based; set-up: key: –: no activity; +: 0.5–5 mm inhibition zone; ++: >5–≤10 mm inhibition zone; +++: >10 mm inhibition zone; conditions: producer spot on M17, chloroform-inactivated, overlay ~7.0 log CFU/mL indicator; 37 °C, Aerobic, BHI; true halo, triplicate
# [31] = tested on: Pseudomonas aeruginosa PA-01; experiment: spot-on-lawn assay; type: cell-based; set-up: key: –: no activity; +: 0.5–5 mm inhibition zone; ++: >5–≤10 mm inhibition zone; +++: >10 mm inhibition zone; conditions: producer spot on M17, chloroform-inactivated, overlay ~7.0 log CFU/mL indicator; 37 °C, Aerobic, BHI; true halo, triplicate
# [32] = residual antimicrobial activity after NaOH treatment; type: physicochemical; conditions: NaOH 0.2 M, 37 °C, 4 h
# Method: The effects of proteinase K (1 mg/mL; Sigma-Aldrich, St Louis, USA), trypsin (1 mg/mL; Merck KgaA, Darmstad, DE), and 0.2 M NaOH on antimicrobial activity were evaluated on agar plates by the methods described previously ([42]). Briefly, 5 µL of an overnight growth suspension of the strain L. raffinolactis APC 3967 was spotted four times on a plate and incubated at optimal conditions. Afterward, the cells were inactivated by chloroform, and 40 µL of the corresponding treatment (protease or NaOH 0.2 M) was spotted around the producer strain. The control was treated with 10 mM PBS, pH 7.4. The plate was incubated at 37°C for 4 h to favor protease activity. The plate was then overlaid with L. lactis HP and incubated at 30°C for 24 h. Results were interpreted by measuring the true halo of the sample, and the following equation calculated the final values of the residual activity: (true halo of treated condition/true halo of the control) × 100 = residual activity (%).
substance,measurement,setting,value
pumilarin,sensitivity to proteolytic activity,[1],low-sensitivity profile
raffinocyclicin,Activity (inhibition zone),[2],+ (0.5–5 mm inhibition zone)
same,Activity (inhibition zone),[3],–
same,Activity (inhibition zone),[4],–
same,Activity (inhibition zone),[5],–
same,Activity (inhibition zone),[6],–
same,Activity (inhibition zone),[7],+ (0.5–5 mm inhibition zone)
same,Activity (inhibition zone),[8],++ (>5–≤10 mm inhibition zone)
same,Activity (inhibition zone),[9],+ (0.5–5 mm inhibition zone)
same,Activity (inhibition zone),[10],++ (>5–≤10 mm inhibition zone)
same,Activity (inhibition zone),[11],+ (0.5–5 mm inhibition zone)
same,Activity (inhibition zone),[12],++ (>5–≤10 mm inhibition zone)
same,Activity (inhibition zone),[13],+ (0.5–5 mm inhibition zone)
same,Activity (inhibition zone),[14],++ (>5–≤10 mm inhibition zone)
same,Activity (inhibition zone),[15],++ (>5–≤10 mm inhibition zone)
same,Activity (inhibition zone),[16],++ (>5–≤10 mm inhibition zone)
same,Activity (inhibition zone),[17],++ (>5–≤10 mm inhibition zone)
same,Activity (inhibition zone),[18],++ (>5–≤10 mm inhibition zone)
same,Activity (inhibition zone),[19],++ (>5–≤10 mm inhibition zone)
same,Activity (inhibition zone),[20],++ (>5–≤10 mm inhibition zone)
same,Activity (inhibition zone),[21],+++ (>10 mm inhibition zone)
same,Activity (inhibition zone),[22],+++ (>10 mm inhibition zone)
same,Activity (inhibition zone),[23],+ (0.5–5 mm inhibition zone)
same,Activity (inhibition zone),[24],+ (0.5–5 mm inhibition zone)
same,Activity (inhibition zone),[25],++ (>5–≤10 mm inhibition zone)
same,Activity (inhibition zone),[26],+ (0.5–5 mm inhibition zone)
same,Activity (inhibition zone),[27],+++ (>10 mm inhibition zone)
same,Activity (inhibition zone),[28],–
same,Activity (inhibition zone),"[29]; producer spot on M17, chloroform-inactivated, overlay ~7.0 log CFU/mL indicator, 37 °C, Aerobic, BHI, true halo, triplicate",–
same,"inhibition in the spot-on-lawn assay, in words","[29]; spot-on-lawn assay, producer L. raffinolactis APC 3967",No inhibition
same,Activity (inhibition zone),[30],–
same,Activity (inhibition zone),[31],–
same,"antimicrobial activity after NaOH treatment, in words",[32]; indicator L. lactis HP,resistant; also recorded: remained unchanged
same,Phenotype,"[32]; 40 µL spotted around chloroform-inactivated producer spot, overlay L. lactis HP, 30 °C, 24 h",R
same,Residual activity,"[32]; 40 µL spotted around chloroform-inactivated producer spot, overlay L. lactis HP, 30 °C, 24 h, true halo treated/control (10 mM PBS pH 7.4) × 100",100%
